# Reference: PubChem BioAssay AID1918930 (Molecular Pharmacology Branch, DTP, NCI, 2023)
# System: 233499-124-R-J3-PDC complex spheroid viability, % test/control
# Test: Anticancer human tumor 233499-124-R-J3-PDC patient-derived colon adenocarcinoma cell line growth inhibition
# Details: for IC50: curve of first compound; for viability, T/C: stronger effect = lower value
# Summary of the method: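 Drug combinations with the LSD1 inhibitor iadademstat tested on tumor cells co-cultured as spheroids with endothelial cells and mesenchymal stem cells. Concentrations descended in half-log increments from clinical Cmax or 10 microM.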
# [1] = second compound 0.1 µM, first compound 0.000316 µM
# [2] = second compound 0.1 µM, first compound 0.001 µM
# [3] = second compound 0.1 µM, first compound 0.00316 µM
# [4] = second compound 0.1 µM, first compound 0.01 µM
# [5] = second compound 0.1 µM, first compound 0.0316 µM
# [6] = second compound 0.1 µM, first compound 0.1 µM
# [7] = second compound 0.316 µM, first compound 0.000316 µM
# [8] = second compound 0.316 µM, first compound 0.001 µM
# [9] = second compound 0.316 µM, first compound 0.00316 µM
# [10] = second compound 0.316 µM, first compound 0.01 µM
# [11] = second compound 0.316 µM, first compound 0.0316 µM
# [12] = second compound 0.316 µM, first compound 0.1 µM
# [13] = second compound 1 µM, first compound 0.000316 µM
# [14] = second compound 1 µM, first compound 0.001 µM
# [15] = second compound 1 µM, first compound 0.00316 µM
# [16] = second compound 1 µM, first compound 0.01 µM
# [17] = second compound 1 µM, first compound 0.0316 µM
# [18] = second compound 1 µM, first compound 0.1 µM
# [19] = second compound 3.16 µM, first compound 0.000316 µM
# [20] = second compound 3.16 µM, first compound 0.001 µM
# [21] = second compound 3.16 µM, first compound 0.00316 µM
# [22] = second compound 3.16 µM, first compound 0.01 µM
# [23] = second compound 3.16 µM, first compound 0.0316 µM
# [24] = second compound 3.16 µM, first compound 0.1 µM
# [25] = second compound 10 µM, first compound 0.000316 µM
# [26] = second compound 10 µM, first compound 0.001 µM
# [27] = second compound 10 µM, first compound 0.00316 µM
# [28] = second compound 10 µM, first compound 0.01 µM
# [29] = second compound 10 µM, first compound 0.0316 µM
# [30] = second compound 10 µM, first compound 0.1 µM
# 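Note: spheroids exposed to agents for one week before readout.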
compound,measurement,setting,value
CC(C)CC(NC(=O)C(Cc1ccccc1)NC(=O)c1cnccn1)B(O)O (stereo not given) + NC1CC1c1ccc(-c2cccc(O)c2)cc1,IC50,second compound 0.1 µM,0.491 nM
same,IC50,second compound 0.316 µM,0.445 nM
same,IC50,second compound 1 µM,0.493 nM
same,IC50,second compound 3.16 µM,0.528 nM
same,IC50,second compound 10 µM,0.389 nM
same,"viability, T/C",[1],80.7%
same,"viability, T/C",[2],0.42%
same,"viability, T/C",[3],0.06%
same,"viability, T/C",[4],0.06%
same,"viability, T/C",[5],0.07%
same,"viability, T/C",[6],0.23%
same,"viability, T/C",[7],71%
same,"viability, T/C",[8],0.32%
same,"viability, T/C",[9],0.06%
same,"viability, T/C",[10],0.23%
same,"viability, T/C",[11],0.05%
same,"viability, T/C",[12],0.21%
same,"viability, T/C",[13],80.7%
same,"viability, T/C",[14],0.91%
same,"viability, T/C",[15],0.05%
same,"viability, T/C",[16],0.04%
same,"viability, T/C",[17],0.06%
same,"viability, T/C",[18],0.2%
same,"viability, T/C",[19],89.8%
same,"viability, T/C",[20],0.32%
same,"viability, T/C",[21],0.08%
same,"viability, T/C",[22],0.06%
same,"viability, T/C",[23],0.07%
same,"viability, T/C",[24],0.23%
same,"viability, T/C",[25],60.1%
same,"viability, T/C",[26],3.72%
same,"viability, T/C",[27],0.8%
same,"viability, T/C",[28],0.22%
same,"viability, T/C",[29],0.42%
same,"viability, T/C",[30],0.34%
CC(C)CC(NC(=O)CNC(=O)c1cc(Cl)ccc1Cl)B1OC(=O)CC(CC(=O)O)(C(=O)O)O1 (stereo not given) + NC1CC1c1ccc(-c2cccc(O)c2)cc1,IC50,second compound 0.1 µM,4.93 nM
same,IC50,second compound 0.316 µM,5.3 nM
same,IC50,second compound 1 µM,4.23 nM
same,IC50,second compound 3.16 µM,4.65 nM
same,IC50,second compound 10 µM,3.64 nM
same,"viability, T/C",[1],114%
same,"viability, T/C",[2],105%
same,"viability, T/C",[3],80.2%
same,"viability, T/C",[4],1.61%
same,"viability, T/C",[5],0.06%
same,"viability, T/C",[6],0.15%
same,"viability, T/C",[7],113%
same,"viability, T/C",[8],109%
same,"viability, T/C",[9],88.4%
same,"viability, T/C",[10],2.74%
same,"viability, T/C",[11],0.07%
same,"viability, T/C",[12],0.16%
same,"viability, T/C",[13],104%
same,"viability, T/C",[14],95.1%
same,"viability, T/C",[15],66.3%
same,"viability, T/C",[16],1.28%
same,"viability, T/C",[17],0.13%
same,"viability, T/C",[18],0.13%
same,"viability, T/C",[19],89.6%
same,"viability, T/C",[20],88.1%
same,"viability, T/C",[21],73.8%
same,"viability, T/C",[22],2.88%
same,"viability, T/C",[23],0.06%
same,"viability, T/C",[24],0.12%
same,"viability, T/C",[25],70.4%
same,"viability, T/C",[26],88.1%
same,"viability, T/C",[27],56.9%
same,"viability, T/C",[28],0.89%
same,"viability, T/C",[29],0.15%
same,"viability, T/C",[30],0.18%
COc1cc(Nc2ncc3c(n2)-c2ccc(Cl)cc2C(c2c(F)cccc2OC)=NC3)ccc1C(=O)O + NC1CC1c1ccc(-c2cccc(O)c2)cc1,IC50,second compound 0.1 µM,> 1000 nM
same,IC50,second compound 0.316 µM,> 1000 nM
same,IC50,second compound 1 µM,< 3.16 nM
same,IC50,second compound 3.16 µM,< 3.16 nM
same,IC50,second compound 10 µM,< 3.16 nM
same,"viability, T/C",[3],44.5%
same,"viability, T/C",[4],54.3%
same,"viability, T/C",[5],66.4%
same,"viability, T/C",[6],72.5%
same,"viability, T/C","second compound 0.1 µM, first compound 0.316 µM",62%
same,"viability, T/C","second compound 0.1 µM, first compound 1 µM",102%
same,"viability, T/C",[9],49.5%
same,"viability, T/C",[10],59.6%
same,"viability, T/C",[11],64.1%
same,"viability, T/C",[12],62.1%
same,"viability, T/C","second compound 0.316 µM, first compound 0.316 µM",62.8%
same,"viability, T/C","second compound 0.316 µM, first compound 1 µM",98.4%
same,"viability, T/C",[15],44.2%
same,"viability, T/C",[16],50.7%
same,"viability, T/C",[17],53.2%
same,"viability, T/C",[18],54.3%
same,"viability, T/C","second compound 1 µM, first compound 0.316 µM",60.6%
same,"viability, T/C","second compound 1 µM, first compound 1 µM",82.9%
same,"viability, T/C",[21],39.8%
same,"viability, T/C",[22],52.1%
same,"viability, T/C",[23],70.5%
same,"viability, T/C",[24],57.2%
same,"viability, T/C","second compound 3.16 µM, first compound 0.316 µM",62.5%
same,"viability, T/C","second compound 3.16 µM, first compound 1 µM",88.9%
same,"viability, T/C",[27],33%
same,"viability, T/C",[28],48.3%
same,"viability, T/C",[29],56.2%
same,"viability, T/C",[30],49%
same,"viability, T/C","second compound 10 µM, first compound 0.316 µM",52.1%
same,"viability, T/C","second compound 10 µM, first compound 1 µM",86.1%
O=C(C=Cc1cccc(S(=O)(=O)Nc2ccccc2)c1)NO + NC1CC1c1ccc(-c2cccc(O)c2)cc1,IC50,second compound 0.1 µM,> 3000 nM
same,IC50,second compound 0.316 µM,> 3000 nM
same,IC50,second compound 1 µM,> 3000 nM
same,IC50,second compound 3.16 µM,908 nM
same,IC50,second compound 10 µM,759 nM
same,"viability, T/C","second compound 0.1 µM, first compound 0.00949 µM",108%
same,"viability, T/C","second compound 0.1 µM, first compound 0.03 µM",134%
same,"viability, T/C","second compound 0.1 µM, first compound 0.0949 µM",118%
same,"viability, T/C","second compound 0.1 µM, first compound 0.3 µM",113%
same,"viability, T/C","second compound 0.1 µM, first compound 0.949 µM",14.4%
same,"viability, T/C","second compound 0.1 µM, first compound 3 µM",89.1%
same,"viability, T/C","second compound 0.316 µM, first compound 0.00949 µM",126%
same,"viability, T/C","second compound 0.316 µM, first compound 0.03 µM",112%
same,"viability, T/C","second compound 0.316 µM, first compound 0.0949 µM",124%
same,"viability, T/C","second compound 0.316 µM, first compound 0.3 µM",115%
same,"viability, T/C","second compound 0.316 µM, first compound 0.949 µM",10.3%
same,"viability, T/C","second compound 0.316 µM, first compound 3 µM",97%
same,"viability, T/C","second compound 1 µM, first compound 0.00949 µM",95.2%
same,"viability, T/C","second compound 1 µM, first compound 0.03 µM",109%
same,"viability, T/C","second compound 1 µM, first compound 0.0949 µM",113%
same,"viability, T/C","second compound 1 µM, first compound 0.3 µM",113%
same,"viability, T/C","second compound 1 µM, first compound 0.949 µM",9.43%
same,"viability, T/C","second compound 1 µM, first compound 3 µM",91.8%
same,"viability, T/C","second compound 3.16 µM, first compound 0.00949 µM",86%
same,"viability, T/C","second compound 3.16 µM, first compound 0.03 µM",104%
same,"viability, T/C","second compound 3.16 µM, first compound 0.0949 µM",93.8%
same,"viability, T/C","second compound 3.16 µM, first compound 0.3 µM",108%
same,"viability, T/C","second compound 3.16 µM, first compound 0.949 µM",7.54%
same,"viability, T/C","second compound 3.16 µM, first compound 3 µM",88.7%
same,"viability, T/C","second compound 10 µM, first compound 0.00949 µM",86%
same,"viability, T/C","second compound 10 µM, first compound 0.03 µM",91.9%
same,"viability, T/C","second compound 10 µM, first compound 0.0949 µM",90.9%
same,"viability, T/C","second compound 10 µM, first compound 0.3 µM",109%
same,"viability, T/C","second compound 10 µM, first compound 0.949 µM",5%
same,"viability, T/C","second compound 10 µM, first compound 3 µM",73.7%
